# Laboratory results from PubChem BioAssay (NCI).
#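 Dose response: 5 concentrations. Exposure: 48 h. Format: 96-well plates. Endpoint: linear interpolation; highest concentration if not reached. GI50 = concentration required for 50% inhibition of growth. TGI: total growth inhibition.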
# Tests used:
# Assay in all cases: NCI-60 cell line screen, 48 h
# DU-145 prostate = system: DU-145 prostate
# SNB-19 CNS = system: SNB-19 CNS
# SR leukemia = system: SR leukemia
# TK-10 renal = system: TK-10 renal
# UO-31 renal = system: UO-31 renal
# NCI-H226 lung = system: NCI-H226 lung
# K-562 leukemia = system: K-562 leukemia
# SN12C renal = system: SN12C renal
# MDA-MB-435 = system: MDA-MB-435
# KM12 colon = system: KM12 colon
# ACHN renal = system: ACHN renal
# OVCAR-8 ovarian = system: OVCAR-8 ovarian
# MOLT-4 leukemia = system: MOLT-4 leukemia
# MCF7 breast = system: MCF7 breast
# OVCAR-5 ovarian = system: OVCAR-5 ovarian
# MDA-MB-468 breast = system: MDA-MB-468 breast
# OVCAR-3 ovarian = system: OVCAR-3 ovarian
# OVCAR-4 ovarian = system: OVCAR-4 ovarian
# RXF 393 renal = system: RXF 393 renal
# MALME-3M melanoma = system: MALME-3M melanoma
# UACC-62 melanoma = system: UACC-62 melanoma
# 786-0 renal = system: 786-0 renal
# SK-OV-3 ovarian = system: SK-OV-3 ovarian
# EKVX NSCLC = system: EKVX NSCLC
# HCC-2998 colon = system: HCC-2998 colon
# UACC-257 melanoma = system: UACC-257 melanoma
# RPMI-8226 leukemia = system: RPMI-8226 leukemia
# SK-MEL-28 melanoma = system: SK-MEL-28 melanoma
# A498 renal = system: A498 renal
# HCT-116 colon = system: HCT-116 colon
# NCI-H23 lung = system: NCI-H23 lung
# SF-295 CNS = system: SF-295 CNS
# CCRF-CEM leukemia = system: CCRF-CEM leukemia
# MDA-MB-231 breast = system: MDA-MB-231 breast
# HS 578T breast = system: HS 578T breast
# SF-539 CNS = system: SF-539 CNS
# IGROV1 ovarian = system: IGROV1 ovarian
# A549 NSCLC = system: A549 NSCLC
# SK-MEL-2 melanoma = system: SK-MEL-2 melanoma
# NCI-H460 lung = system: NCI-H460 lung
# HOP-62 NSCLC = system: HOP-62 NSCLC
# SW-620 colon = system: SW-620 colon
# COLO 205 colon = system: COLO 205 colon
# BT-549 breast = system: BT-549 breast
# SF-268 CNS = system: SF-268 CNS
# M14 melanoma = system: M14 melanoma
# PC-3 prostate = system: PC-3 prostate
# HCT-15 colon = system: HCT-15 colon
# HT29 colon = system: HT29 colon
# SK-MEL-5 melanoma = system: SK-MEL-5 melanoma
# LOX IMVI melanoma = system: LOX IMVI melanoma
# CAKI-1 renal = system: CAKI-1 renal
smiles,measurement,setting,value
COc1ccc2[nH]cc(-c3cc4nc(-c5cn(C)c6ncc(Br)cc56)cc(N)n4n3)c2c1,GI50,DU-145 prostate,1780 nM
same,TGI,DU-145 prostate,3640 nM
same,GI50,SNB-19 CNS,2450 nM
same,TGI,SNB-19 CNS,6630 nM
same,GI50,SR leukemia,2740 nM
same,TGI,SR leukemia,> 100000 nM
same,GI50,TK-10 renal,2480 nM
same,TGI,TK-10 renal,6390 nM
same,GI50,UO-31 renal,1730 nM
same,TGI,UO-31 renal,4160 nM
same,GI50,NCI-H226 lung,1950 nM
same,TGI,NCI-H226 lung,3970 nM
same,GI50,K-562 leukemia,2590 nM
same,TGI,K-562 leukemia,> 100000 nM
same,GI50,SN12C renal,1700 nM
same,TGI,SN12C renal,3300 nM
same,GI50,MDA-MB-435,1680 nM
same,TGI,MDA-MB-435,3210 nM
same,GI50,KM12 colon,1990 nM
same,TGI,KM12 colon,4420 nM
same,GI50,ACHN renal,1460 nM
same,TGI,ACHN renal,3350 nM
same,GI50,OVCAR-8 ovarian,1860 nM
same,TGI,OVCAR-8 ovarian,3660 nM
same,GI50,MOLT-4 leukemia,2240 nM
same,TGI,MOLT-4 leukemia,> 100000 nM
same,GI50,MCF7 breast,1670 nM
same,TGI,MCF7 breast,3050 nM
same,GI50,OVCAR-5 ovarian,1590 nM
same,TGI,OVCAR-5 ovarian,3440 nM
same,GI50,MDA-MB-468 breast,1420 nM
same,TGI,MDA-MB-468 breast,2860 nM
same,GI50,OVCAR-3 ovarian,1810 nM
same,TGI,OVCAR-3 ovarian,3490 nM
same,GI50,OVCAR-4 ovarian,1840 nM
same,TGI,OVCAR-4 ovarian,3790 nM
same,GI50,RXF 393 renal,1730 nM
same,TGI,RXF 393 renal,3230 nM
same,GI50,MALME-3M melanoma,1680 nM
same,TGI,MALME-3M melanoma,3170 nM
same,GI50,UACC-62 melanoma,1550 nM
same,TGI,UACC-62 melanoma,3040 nM
same,GI50,786-0 renal,1770 nM
same,TGI,786-0 renal,3290 nM
same,GI50,SK-OV-3 ovarian,2380 nM
same,TGI,SK-OV-3 ovarian,5640 nM
same,GI50,EKVX NSCLC,1660 nM
same,TGI,EKVX NSCLC,3840 nM
same,GI50,HCC-2998 colon,1740 nM
same,TGI,HCC-2998 colon,3170 nM
same,GI50,UACC-257 melanoma,1720 nM
same,TGI,UACC-257 melanoma,3480 nM
same,GI50,RPMI-8226 leukemia,2910 nM
same,TGI,RPMI-8226 leukemia,> 100000 nM
same,GI50,SK-MEL-28 melanoma,1670 nM
same,TGI,SK-MEL-28 melanoma,3080 nM
same,GI50,A498 renal,2220 nM
same,TGI,A498 renal,7010 nM
same,GI50,HCT-116 colon,1810 nM
same,TGI,HCT-116 colon,3300 nM
same,GI50,NCI-H23 lung,1760 nM
same,TGI,NCI-H23 lung,3510 nM
same,GI50,SF-295 CNS,1570 nM
same,TGI,SF-295 CNS,3070 nM
same,GI50,CCRF-CEM leukemia,2850 nM
same,TGI,CCRF-CEM leukemia,> 100000 nM
same,GI50,MDA-MB-231 breast,1650 nM
same,TGI,MDA-MB-231 breast,3360 nM
same,GI50,HS 578T breast,1800 nM
same,TGI,HS 578T breast,4580 nM
same,GI50,SF-539 CNS,1640 nM
same,TGI,SF-539 CNS,3030 nM
same,GI50,IGROV1 ovarian,1650 nM
same,TGI,IGROV1 ovarian,3430 nM
same,GI50,A549 NSCLC,1770 nM
same,TGI,A549 NSCLC,5070 nM
same,GI50,SK-MEL-2 melanoma,1680 nM
same,TGI,SK-MEL-2 melanoma,3250 nM
same,GI50,NCI-H460 lung,1800 nM
same,TGI,NCI-H460 lung,3470 nM
same,GI50,HOP-62 NSCLC,2070 nM
same,TGI,HOP-62 NSCLC,5490 nM
same,GI50,SW-620 colon,1750 nM
same,TGI,SW-620 colon,3350 nM
same,GI50,COLO 205 colon,1820 nM
same,TGI,COLO 205 colon,3450 nM
same,GI50,BT-549 breast,2140 nM
same,TGI,BT-549 breast,4670 nM
same,GI50,SF-268 CNS,1840 nM
same,TGI,SF-268 CNS,4330 nM
same,GI50,M14 melanoma,1830 nM
same,TGI,M14 melanoma,3550 nM
same,GI50,PC-3 prostate,2540 nM
same,TGI,PC-3 prostate,10300 nM
same,GI50,HCT-15 colon,1350 nM
same,TGI,HCT-15 colon,2810 nM
same,GI50,HT29 colon,1960 nM
same,TGI,HT29 colon,3950 nM
same,GI50,SK-MEL-5 melanoma,1780 nM
same,TGI,SK-MEL-5 melanoma,3340 nM
same,GI50,LOX IMVI melanoma,1650 nM
same,TGI,LOX IMVI melanoma,3110 nM
same,GI50,CAKI-1 renal,1410 nM
same,TGI,CAKI-1 renal,3540 nM
